Data: PMC10799935, “Discovery of a peripheral 5HT2A antagonist as a clinical candidate for metabolic dysfunction-associated steatohepatitis” (Nature Communications, 2024)
Several values for one entry are separate records, joined by “and”; a condition that tells them apart may be missing. Equal entries are not always repeated.

How the values were obtained:
[1] = tested on: α-SMA; test: CDAHFD mice: liver α-SMA RNA expression (qRT-PCR); format: in vivo, mouse; details: for Relative liver α-SMA expressions in mice, measured using quantitative RT-PCR: individual mice and Average
Description: C57BL/6 J male mice were purchased from the Japan SLC. Inc (Hamamatsu, Japan). Mice (5 weeks old) were fed Teklad Certitied Irradiated Global 18% protein rodent diet purchased from Dooyeol Biotech Co. Ltd (Seoul, South Korea) during the acclimation period. The liver fibrosis/inflammation-induced groups were CDAHFD-fed (A06071302, Research diet). […]. […] All animal experiments complied with the relevant ethical regulations.
The frozen liver tissue was homogenized and put into QiAzol (Qiagen, Hilden) to isolate RNA, and 4 μg of RNA was synthesized into cDNA using the RevertAid First Strand cDNA synthesis kit (Thermo Fischer, Waltham). The expressions of mouse collagen I (Forward: 5’-TGTGTTCCCTACTCAGCCGTG-3’. Reverse: 5’-CATCGGTCATGCTCTCTCCAA-3’), mouse α-SMA (Forward:5’-TCCTGACGCTGAAGTATCCGAT-3’, Reverse: 5’-GGCCACACAAAGCTCGTTATAG-3’) and mouse 36B4 (Forward: 5’-ACCTCCTTCTTCCAGGCTTT-3’, Reverse: 5’-CTCCAGTCTTTATCAGCTGC-3’) as house-keeping gene were measured using ViiA 7 Real-time PCR system (Thermo Fischer scientific).

[2] = tested on: IL-1β; test: CDAHFD mice: IL-1β immunohistochemical staining; format: in vivo, mouse; design: IL-1β immunohistochemical staining (IL1b area), individual mouse / IL-1β immunohistochemical staining (IL1b area), Average: unit not given here; details: for IL-1β immunohistochemical staining (IL1b area), Average / IL-1β immunohistochemical staining (IL1b area), individual mouse: CDAHFD mice; for IL-1β immunohistochemical staining (IL1b area), Average: group average n=4, CDAHFD+Vehicle 8.870, Vehicle 2.958; for IL-1β immunohistochemical staining (IL1b area), individual mouse: individual animals No. 1-4 (Fig.4h)
Description: (§1) C57BL/6 J male mice were purchased from the Japan SLC. Inc (Hamamatsu, Japan). Mice (5 weeks old) were fed Teklad Certitied Irradiated Global 18% protein rodent diet purchased from Dooyeol Biotech Co. Ltd (Seoul, South Korea) during the acclimation period. The liver fibrosis/inflammation-induced groups were CDAHFD-fed (A06071302, Research diet). […] All animal experiments complied with the relevant ethical regulations.
(§2) Mouse liver tissues were fixed in 4% formalin solution (Sigma–Aldrich, St. Louis, MO, USA) and embedded in paraffin. 4-μm-thick liver sections were deparaffinized in xylene, and rehydrated through descending grades of ethanol. To evaluate liver fibrosis, sections were stained with Sirius red solution and subjected to immunohistochemical staining. Tissue sections, after deparaffinization, underwent a 16-hour incubation in a solution containing 0.1% Direct Red 80 (365548, Sigma-Aldrich) dissolved in Picric acid (P-201, Spectrum Chemical, CA, USA) for Sirius red staining. The sections were briefly immersed in a 0.01 N HCl solution (1129, Ducksan, Republic of Korea) for 2 min. and then rinsed with distilled water for destaining. Subsequently, the sections underwent dehydration through […] grades of ethanol. Immunohistochemical staining was performed using the Polyview Plus HRP-DAB (anti-Rabbit) Kit (ENZ-KIT159-0150, ENZO Life Science, NY, USA) following the manufacturers’ instructions. Deparaffinized sections were boiled in IHC-TekTM Epitope Retrieval solution (IW-1100, IHCWORLD, MD, USA) for 45 min., cooled for 1 h, incubated in a 3% H2O2 solution (69355-0350, JUNSEI, Japan) for 15 min., washed, and then incubated overnight with primary antibodies (α-SMA, ab5694, Abcam, 1:500 dilution; TNF-α, ab6671, Abcam, 1:100 dilution and IL-1β, ab9722, Abcam, 1:100 dilution). Subsequently, the sections were treated with Polyview Plus HRP for 2 h and developed with DAB chromogen/substrate. Stained […] sections were confirmed by light microscopy (Olympus BX53 upright microscope, Tokyo, Japan). The degree of hepatic fibrosis and immunohistochemical staining was quantified by morphometric analysis of stained liver sections using NIH ImageJ software.

[3] = tested on: α-SMA; test: CDAHFD mice: α-SMA immunohistochemical staining; format: in vivo, mouse; design: α-SMA immunohistochemical staining (a-SMA area), individual mouse / α-SMA immunohistochemical staining (a-SMA area), Average: unit not given here; details: for α-SMA immunohistochemical staining (a-SMA area), Average / α-SMA immunohistochemical staining (a-SMA area), individual mouse: CDAHFD mice; for α-SMA immunohistochemical staining (a-SMA area), Average: group average n=5, CDAHFD+Vehicle 6.348, Vehicle 0.808; for α-SMA immunohistochemical staining (a-SMA area), individual mouse: individual animals No. 1-5 (Fig.4f)
Description: as §1, §2

[4] = Hepatocyte stability test, rat; format: in vitro ADME; details: male, Sprague Dawley, cryopreserved hepatocytes, pH 7.4, read-out: Hepatocyte stability (% remaining after 3 h)
Experimental: Hepatocyte incubations for the test compound (10 μM final concentration, n = 2 per each time point) were carried out in mouse, rat, dog, monkey and human cryopreserved hepatocytes, resuspended at a density of 0.5 million cells/ml of modified Krebs-Henseleit buffer (KHB). The information regarding the hepatocytes used in the experiment is as follows: liverPool® 10-donor mixed gender human (BioIVT, Cat.No. X008001, lot EAV), male cynomolgus monkey (BioIVT, Cat.No. M00305, lot COJ), male Beagle dog (BioIVT, Cat.No. M00205, lot USY), male Sprague Dawley rat (BioIVT, Cat.No. M00005, lot TQE) and male CD1 mouse (BioIVT, Cat.No.005052, lot LFF). In addition, the compound was also incubated with blank KHB. The final concentration of solvent (DMSO) was 0.1% of the final volume. The incubations were performed for 3 hours at 37°C and pH 7.4. Reactions were terminated at 0 and 180 minutes by the addition of 3 volumes of stop solution (acetonitrile/methanol (2:1, v/v) containing internal standard–diclofenac at 100 ng/ml). Samples (compound spiked buffer and compound spiked hepatocytes, as well as blank samples, i.e. hepatocytes with the same DMSO%) were then centrifuged and aliquots were transferred to 96-deep micronic tubes and frozen at -80 °C until LC-MS/MS analysis. […]

[5] = CDAHFD-fed 11c vs CDAHFD-fed vehicle group

SMILES: Cc1nc2n(c(=O)c1CCN1CCC(=C3c4ccc(Cl)cc4CCc4cccnc43)CC1)CCCC2O (stereo not shown) [Compound 11c]
- Relative liver α-SMA expressions in mice, measured using quantitative RT-PCR ([1]; CDAHFD+11c 5 mpk): 2.564 and 0.488 and 1.651 and 1.165 and 1.498
- Relative liver α-SMA expressions in mice, measured using quantitative RT-PCR ([1]; CDAHFD+11c 5 mpk, mean): 1.473
- Relative liver α-SMA expressions in mice, measured using quantitative RT-PCR ([1]; CDAHFD+11c 10mpk): 2.015 and 1.845 and 1.808 and 2.373 and 1.519
- Relative liver α-SMA expressions in mice, measured using quantitative RT-PCR ([1]; CDAHFD+11c 10mpk, mean): 1.912
- mRNA expression of α-SMA in liver tissue [1, 5]: significantly decreased
- IL-1β immunohistochemical staining (IL1b area), Average ([2]; 11c 5 mpk): 4.503
- IL-1β immunohistochemical staining (IL1b area), individual mouse ([2]; 11c 5 mpk): 6.500 and 6.265 and 2.688 and 2.559
- IL-1β immunohistochemical staining (IL1b area), Average ([2]; 11c 10mpk): 3.142
- IL-1β immunohistochemical staining (IL1b area), individual mouse ([2]; 11c 10mpk): 2.228 and 4.531 and 2.370 and 3.440
- IL-1β expression (immunohistochemical staining) [2, 5]: significant decrease
- α-SMA immunohistochemical staining (a-SMA area), Average ([3]; 11c 5 mpk): 2.563
- α-SMA immunohistochemical staining (a-SMA area), individual mouse ([3]; 11c 5 mpk): 2.929 and 2.447 and 3.505 and 2.773 and 1.159
- α-SMA immunohistochemical staining (a-SMA area), Average ([3]; 11c 10mpk): 3.310
- α-SMA immunohistochemical staining (a-SMA area), individual mouse ([3]; 11c 10mpk): 3.665 and 3.079 and 3.824 and 3.446 and 2.538
- α-SMA expression (immunohistochemical staining) [3, 5]: significant decrease
- remaining at 3 h, 10 μM [4]: 68.9%
